According to PubChem BioAssay (NCI):
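The compound was tested at five concentrations on cells cultured in 96-well plates, with a 48-hour exposure period. Definition used: TGI = concentration required for complete inhibition of growth.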

How the values were obtained:
Assay in all cases: inhibition of tumour cell growth, NCI panel, 48 h
M19-MEL melanoma = tested on: M19-MEL melanoma
A498 renal = tested on: A498 renal
SF-539 CNS = tested on: SF-539 CNS
OVCAR-5 ovarian = tested on: OVCAR-5 ovarian
SF-268 CNS = tested on: SF-268 CNS
SK-MEL-28 melanoma = tested on: SK-MEL-28 melanoma
UACC-257 melanoma = tested on: UACC-257 melanoma
SN12C renal = tested on: SN12C renal
DMS 114 small cell lung = tested on: DMS 114 small cell lung
SF-295 CNS = tested on: SF-295 CNS
HOP-62 NSCLC = tested on: HOP-62 NSCLC
TK-10 renal = tested on: TK-10 renal
SW-620 colon = tested on: SW-620 colon
SR leukemia = tested on: SR leukemia
KM20L2 colon = tested on: KM20L2 colon
CCRF-CEM leukemia = tested on: CCRF-CEM leukemia
HT29 colon = tested on: HT29 colon
RPMI-8226 leukemia = tested on: RPMI-8226 leukemia
HL-60(TB) leukemia = tested on: HL-60(TB) leukemia
786-0 renal = tested on: 786-0 renal
COLO 205 colon = tested on: COLO 205 colon
MALME-3M melanoma = tested on: MALME-3M melanoma
MOLT-4 leukemia = tested on: MOLT-4 leukemia
UACC-62 melanoma = tested on: UACC-62 melanoma
SK-OV-3 ovarian = tested on: SK-OV-3 ovarian
A549 NSCLC = tested on: A549 NSCLC
K-562 leukemia = tested on: K-562 leukemia
IGROV1 ovarian = tested on: IGROV1 ovarian
ACHN renal = tested on: ACHN renal
NCI-H522 lung = tested on: NCI-H522 lung
SNB-19 CNS = tested on: SNB-19 CNS
OVCAR-4 ovarian = tested on: OVCAR-4 ovarian
KM12 colon = tested on: KM12 colon
DLD-1 colon = tested on: DLD-1 colon
NCI-H460 lung = tested on: NCI-H460 lung
OVCAR-3 ovarian = tested on: OVCAR-3 ovarian
HCC-2998 colon = tested on: HCC-2998 colon
HCT-116 colon = tested on: HCT-116 colon
RXF 393 renal = tested on: RXF 393 renal
SK-MEL-5 melanoma = tested on: SK-MEL-5 melanoma
OVCAR-8 ovarian = tested on: OVCAR-8 ovarian
EKVX NSCLC = tested on: EKVX NSCLC
NCI-H23 lung = tested on: NCI-H23 lung
SK-MEL-2 melanoma = tested on: SK-MEL-2 melanoma
UO-31 renal = tested on: UO-31 renal
LOX IMVI melanoma = tested on: LOX IMVI melanoma
HOP-92 NSCLC = tested on: HOP-92 NSCLC
HCT-15 colon = tested on: HCT-15 colon
NCI-H226 lung = tested on: NCI-H226 lung
MDA-MB-435 = tested on: MDA-MB-435
DU-145 prostate = tested on: DU-145 prostate
PC-3 prostate = tested on: PC-3 prostate
BT-549 breast = tested on: BT-549 breast
M14 melanoma = tested on: M14 melanoma
MDA-MB-231 breast = tested on: MDA-MB-231 breast
U251 CNS = tested on: U251 CNS
NCI/ADR-RES ovarian = tested on: NCI/ADR-RES ovarian
HS 578T breast = tested on: HS 578T breast
CAKI-1 renal = tested on: CAKI-1 renal
SNB-75 CNS = tested on: SNB-75 CNS
MCF7 breast = tested on: MCF7 breast
MDA-N = tested on: MDA-N
T-47D breast = tested on: T-47D breast

Compound: C[N+](C)(C)CC(=O)N/N=C(/Cc1nc2ccc(Cl)cc2[nH]c1=O)C1=NS(=O)(=O)c2cc(S(N)(=O)=O)c(Cl)cc2N1
- TGI (M19-MEL melanoma): > 100 µM
- TGI (A498 renal): > 100 µM
- TGI (SF-539 CNS): > 100 µM
- TGI (OVCAR-5 ovarian): > 100 µM
- TGI (SF-268 CNS): > 100 µM
- TGI (SK-MEL-28 melanoma): > 100 µM
- TGI (UACC-257 melanoma): > 100 µM
- TGI (SN12C renal): > 100 µM
- TGI (DMS 114 small cell lung): > 100 µM
- TGI (SF-295 CNS): > 100 µM
- TGI (HOP-62 NSCLC): > 100 µM
- TGI (TK-10 renal): > 100 µM
- TGI (SW-620 colon): > 100 µM
- TGI (SR leukemia): > 100 µM
- TGI (KM20L2 colon): > 100 µM
- TGI (CCRF-CEM leukemia): > 100 µM
- TGI (HT29 colon): > 100 µM
- TGI (RPMI-8226 leukemia): > 100 µM
- TGI (HL-60(TB) leukemia): > 100 µM
- TGI (786-0 renal): > 100 µM
- TGI (COLO 205 colon): > 100 µM
- TGI (MALME-3M melanoma): > 100 µM
- TGI (MOLT-4 leukemia): > 100 µM
- TGI (UACC-62 melanoma): > 100 µM
- TGI (SK-OV-3 ovarian): > 100 µM
- TGI (A549 NSCLC): > 100 µM
- TGI (K-562 leukemia): > 100 µM
- TGI (IGROV1 ovarian): > 100 µM
- TGI (ACHN renal): > 100 µM
- TGI (NCI-H522 lung): > 100 µM
- TGI (SNB-19 CNS): > 100 µM
- TGI (OVCAR-4 ovarian): > 100 µM
- TGI (KM12 colon): > 100 µM
- TGI (DLD-1 colon): > 100 µM
- TGI (NCI-H460 lung): > 100 µM
- TGI (OVCAR-3 ovarian): > 100 µM
- TGI (HCC-2998 colon): > 100 µM
- TGI (HCT-116 colon): > 100 µM
- TGI (RXF 393 renal): > 100 µM
- TGI (SK-MEL-5 melanoma): > 100 µM
- TGI (OVCAR-8 ovarian): > 100 µM
- TGI (EKVX NSCLC): > 100 µM
- TGI (NCI-H23 lung): > 100 µM
- TGI (SK-MEL-2 melanoma): > 100 µM
- TGI (UO-31 renal): > 100 µM

Compound: COc1ccc(NC(=S)N=Nc2c(O)[nH]c3ccccc23)cc1
- TGI (LOX IMVI melanoma): > 100 µM
- TGI (HOP-92 NSCLC): > 78.7 µM
- TGI (HCT-15 colon): > 100 µM
- TGI (A498 renal): > 83.3 µM
- TGI (SF-539 CNS): > 70.4 µM
- TGI (NCI-H226 lung): > 100 µM
- TGI (OVCAR-5 ovarian): > 100 µM
- TGI (SF-268 CNS): > 100 µM
- TGI (SK-MEL-28 melanoma): > 100 µM
- TGI (UACC-257 melanoma): > 100 µM
- TGI (SN12C renal): > 89 µM
- TGI (MDA-MB-435): > 100 µM
- TGI (SF-295 CNS): > 58.5 µM
- TGI (DU-145 prostate): > 100 µM
- TGI (HOP-62 NSCLC): > 45.5 µM
- TGI (PC-3 prostate): > 70 µM
- TGI (TK-10 renal): > 79 µM
- TGI (SW-620 colon): > 100 µM
- TGI (BT-549 breast): 33.2 µM
- TGI (SR leukemia): > 100 µM
- TGI (M14 melanoma): > 100 µM
- TGI (CCRF-CEM leukemia): > 100 µM
- TGI (MDA-MB-231 breast): > 90.8 µM
- TGI (HT29 colon): > 100 µM
- TGI (RPMI-8226 leukemia): > 100 µM
- TGI (HL-60(TB) leukemia): > 100 µM
- TGI (786-0 renal): > 55.9 µM
- TGI (COLO 205 colon): > 100 µM
- TGI (MALME-3M melanoma): > 42.8 µM
- TGI (U251 CNS): > 59.9 µM
- TGI (MOLT-4 leukemia): > 100 µM
- TGI (UACC-62 melanoma): > 100 µM
- TGI (SK-OV-3 ovarian): > 68.8 µM
- TGI (NCI/ADR-RES ovarian): > 42.6 µM
- TGI (A549 NSCLC): > 100 µM
- TGI (K-562 leukemia): > 100 µM
- TGI (IGROV1 ovarian): > 100 µM
- TGI (HS 578T breast): > 100 µM
- TGI (ACHN renal): > 95.4 µM
- TGI (CAKI-1 renal): 98.3 µM
- TGI (NCI-H522 lung): > 100 µM
- TGI (SNB-75 CNS): > 78.8 µM
- TGI (SNB-19 CNS): > 100 µM
- TGI (OVCAR-4 ovarian): > 95.2 µM
- TGI (KM12 colon): > 100 µM
- TGI (MCF7 breast): > 100 µM
- TGI (NCI-H460 lung): > 100 µM
- TGI (OVCAR-3 ovarian): > 58.6 µM
- TGI (HCC-2998 colon): > 100 µM
- TGI (HCT-116 colon): > 100 µM
- TGI (RXF 393 renal): > 61 µM
- TGI (MDA-N): > 100 µM
- TGI (SK-MEL-5 melanoma): > 100 µM
- TGI (OVCAR-8 ovarian): > 76.2 µM
- TGI (EKVX NSCLC): > 100 µM
- TGI (NCI-H23 lung): > 100 µM
- TGI (T-47D breast): > 100 µM
- TGI (SK-MEL-2 melanoma): > 76.4 µM
- TGI (UO-31 renal): > 100 µM
